Reference: patent US7396830B2, “Piperazine amidines as antiviral agents” (priority 2005, dated 2008)
pEC50: −log10 of the molar value.

Test system: HIV-1
Assay: Single-round infectious HIV-1 luciferase reporter virus infection of HeLa CD4 cells
Type: cell-based
Settings: Human immunodeficiency virus 1, HeLa, 72 h, read-out: EC50 Group from Table 1
Description: • Virus production—Human embryonic Kidney cell line, 293T, was propagated in Dulbecco's Modified Eagle Medium (Invitrogen, Carlsbad, Calif.) containing 10% fetal Bovine serum (FBS, Sigma, St. Louis, Mo.). • Virus infection—Human epithelial cell line, HeLa, expressing the HIV-1 receptor CD4 was propagated in Dulbecco's Modified Eagle Medium (Invitrogen, Carlsbad, Calif.) containing 10% fetal Bovine serum (FBS, Sigma, St. Louis , Mo.) and supplemented with 0.2 mg/mL Geneticin (Invitrogen, Carlsbad, Calif.). Virus-Single-round infectious reporter virus was produced by co-transfecting human embryonic Kidney 293 cells with an HIV-1 envelope DNA expression vector and a proviral cDNA containing an envelope deletion mutation and the luciferase reporter gene inserted in place of HIV-1 nef sequences (Chen et al, Ref. 41). Transfections were performed using lipofectAMINE PLUS reagent as described by the manufacturer (Invitrogen, Carlsbad, Calif.). Experiment • 1. HeLa CD4 cells were plated in 96 well plates at a cell density of 1×10^4 cells per well in 100 μl Dulbecco's Modified Eagle Medium containing 10% fetal Bovine serum and incubated overnight. • 2. Compound was added in a 2 μl dimethylsulfoxide solution, so that the final assay concentration would be ≦10 μM. • 3. 100 μl of single-round infectious reporter virus in Dulbecco's Modified Eagle Medium was then added to the plated cells and compound at an approximate multiplicity of infection (MOI) of 0.01, resulting in a final volume of 200 μl per well. • 4. Virally-infected cells were incubated at 37 degrees Celsius, in a CO2 incubator, and harvested 72 h after infection. • 5. Viral infection was monitored by measuring luciferase expression from viral DNA in the infected cells using a luciferase reporter gene assay kit, as described by the manufacturer (Roche Molecular Biochemicals, Indianapolis, Ind.). Infected cell supernatants were removed and 50 μl of lysis buffer was added per well. After 15 minutes, 50 μl of freshly-reconstituted luciferase assay reagent was added per well. Luciferase activity was then quantified by measuring luminescence using a Wallac microbeta scintillation counter. • 6. The percent inhibition for each compound was calculated by quantifying the level of luciferase expression in cells infected in the presence of each compound as a percentage of that observed for cells infected in the absence of compound and subtracting such a determined value from 100. • 7. An EC50 provides a method for comparing the antiviral potency of the compounds of this disclosure. The effective concentration for fifty percent inhibition (EC50) was calculated with the Microsoft Excel Xlfit curve fitting software. For each compound, curves were generated from percent inhibition calculated at 10 different concentrations by using a four paramenter logistic model (model 205). Table 1 is the key for the data in Table 2. Results

SMILES | pEC50
N=C(c1ccccc1)N1CCN(C(=O)C(=O)c2c[nH]c3cccc(F)c23)CC1 [AM-01, 1-(4-fluoro-1H-indol-3-yl)-2-(4-(imino(phenyl)methyl)piperazin-1-yl)ethane-1,2-dione] | > 6.30
O=C(C(=O)N1CCN(/C(=N/C2CCC2)c2ccccc2)CC1)c1c[nH]c2c(-n3ccnn3)ncc(F)c12 [AM-56] | > 6.30
CC(C)NC(=O)/N=C(\c1ccccc1)N1CCN(C(=O)C(=O)c2c[nH]c3cccc(F)c23)CC1 [AM-36] | < 6.30
C[C@H]1CN(/C(=N/C#N)c2ccccc2)CCN1C(=O)C(=O)c1c[nH]c2c(-n3ccnn3)ncc(F)c12 [AM-65] | > 6.30
C/N=C(\c1ccccc1)N1CCN(C(=O)C(=O)c2c[nH]c3c(-n4ccnn4)ncc(F)c23)CC1 [AM-69] | > 6.30
CC1(C)OB(c2ccc(NC(=O)/N=C(\c3ccccc3)N3CCN(C(=O)C(=O)c4c[nH]c5cccc(F)c45)CC3)cc2)OC1(C)C [AM-50] | < 6.30
O=C(C(=O)N1CCN(/C(=N/c2cccnc2)c2ccccc2)CC1)c1c[nH]c2cccc(F)c12 [AM-22] | < 6.30
O=C(C(=O)N1CCN(/C(=N/C2CC2)c2ccccc2)CC1)c1c[nH]c2cccc(F)c12 [AM-21] | < 6.30
COc1cnc(-n2cnc(C)n2)c2[nH]cc(C(=O)C(=O)N3CCN(C(=N)c4ccccn4)CC3)c12 [AM-55] | > 6.30
COc1cnc(-c2cnccn2)c2[nH]cc(C(=O)C(=O)N3CCN(C(=N)c4ccccc4)C[C@@H]3C)c12 [AM-72] | > 6.30
COc1cnc(-c2cnccn2)c2[nH]cc(C(=O)C(=O)N3CCN(C(=N)c4ccccc4)C[C@H]3C)c12 [AM-71] | > 6.30
CN(C)CCC/N=C(\c1ccccc1)N1CCN(C(=O)C(=O)c2c[nH]c3cccc(F)c23)CC1 [AM-20] | < 6.30
N#C/N=C(\c1ccccn1)N1CCN(C(=O)C(=O)c2c[nH]c3c(-n4ccnn4)ncc(F)c23)CC1 [AM-81] | > 6.30
O=C(C(=O)N1CCN(/C(=N/CCN2CCOCC2)c2ccccc2)CC1)c1c[nH]c2cccc(F)c12 [AM-23] | < 6.30
N#C/N=C(\c1ccccc1)N1CCN(C(=O)C(=O)c2c[nH]c3cccc(F)c23)CC1 [AM-02] | > 6.30
CCC/N=C(\c1ccccc1)N1CCN(C(=O)C(=O)c2c[nH]c3ccccc23)CC1 [AM-13] | < 6.30
COc1cnc(-n2cnc(C)n2)c2[nH]cc(C(=O)C(=O)N3CCN(/C(=N/C#N)c4ccccn4)CC3)c12 [AM-82] | > 6.30
COc1cnc(-n2cnc(C)n2)c2[nH]cc(C(=O)C(=O)N3CCN(/C(=N/C#N)c4ccccc4)CC3)c12 [AM-16] | > 6.30
CN(C)S(=O)(=O)/N=C(\c1ccccc1)N1CCN(C(=O)C(=O)c2c[nH]c3ccccc23)CC1 [AM-04] | > 6.30

SMILES | pEC50
COc1ccc(Br)c2[nH]cc(C(=O)C(=O)N3CCN(/C(=N/S(C)(=O)=O)c4ccccc4)CC3)c12 [AM-07] | > 6.30
CN(C)S(=O)(=O)/N=C(\c1ccccc1)N1CCN(C(=O)C(=O)c2c[nH]c3c(-n4ccnn4)ncc(F)c23)CC1 [AM-67] | > 6.30
O=C(C(=O)N1CCN(/C(=N/C2CCCC2)c2ccccc2)CC1)c1c[nH]c2c(-n3ccnn3)ncc(F)c12 [AM-61] | > 6.30
N=C(c1ccccc1)N1CCN(C(=O)C(=O)c2c[nH]c3c(-c4nccs4)ccc(F)c23)CC1 [AM-77] | > 6.30
CCN(CC)CC/N=C(\c1ccccc1)N1CCN(C(=O)C(=O)c2c[nH]c3c(Br)ccc(F)c23)CC1 [AM-05] | > 6.30
CC(C)(C)/N=C(\c1ccccc1)N1CCN(C(=O)C(=O)c2c[nH]c3ccccc23)CC1 [AM-14] | < 6.30
C/N=C(\c1ccccc1)N1CCN(C(=O)C(=O)c2c[nH]c3c(-n4cnc(C)n4)ncc(OC)c23)CC1 [AM-70] | > 6.30
CC/N=C(\c1ccccc1)N1CCN(C(=O)C(=O)c2c[nH]c3c(-n4ccnn4)ncc(F)c23)CC1 [AM-59] | > 6.30
COc1cnc(-n2ccnn2)c2[nH]cc(C(=O)C(=O)N3CCN(/C(=N/C#N)c4ccccc4)CC3)c12 [AM-24] | > 6.30
N#C/N=C(\c1ccccc1)N1CCN(C(=O)C(=O)c2c[nH]c3c(F)ccc(F)c23)CC1 [AM-30] | > 6.30
O=C(C(=O)N1CCN(/C(=N/CCOCCO)c2ccccc2)CC1)c1c[nH]c2cccc(F)c12 [AM-19] | < 6.30
C[C@H]1CN(/C(=N/C#N)c2ccccc2)CCN1C(=O)C(=O)c1c[nH]c2c(-c3cc4ccccc4s3)ccc(F)c12 [AM-80] | > 6.30
C[C@@H]1CN(/C(=N/C#N)c2ccccc2)CCN1C(=O)C(=O)c1c[nH]c2c(-n3ccnn3)ncc(F)c12 [AM-25, (((R)-4-(2-(4-fluoro-7-(1H-1,2,3-triazol-1-yl)-1H-pyrrolo[2,3-c]pyridin-3-yl)-2-oxoacetyl)-3-methylpiperazin-1-yl)(phenyl)methylene)cyanamide] | > 6.30
O=C(C(=O)N1CCN(/C(=N/CCN2CCOCC2)c2ccccc2)CC1)c1c[nH]c2c(Br)ccc(F)c12 [AM-06] | > 6.30
O=C(C(=O)N1CCN(/C(=N/CCOCCO)c2ccccc2)CC1)c1c[nH]c2c(-n3ccnn3)ncc(F)c12 [AM-60] | > 6.30
CN(C)CCC/N=C(\c1ccccc1)N1CCN(C(=O)C(=O)c2c[nH]c3c(-n4ccnn4)ncc(F)c23)CC1 [AM-58] | > 6.30
C[C@@H]1CN(C(=N)c2ccccc2)CCN1C(=O)C(=O)c1c[nH]c2c(-n3ccnn3)ncc(F)c12 [AM-33] | > 6.30
N#C/N=C(\c1ccccc1)N1CCN(C(=O)C(=O)c2c[nH]c3c(Br)ccc(F)c23)CC1 [AM-17] | > 6.30
COc1cnc(-n2ccc(-c3ccc(C#N)cc3)n2)c2[nH]cc(C(=O)C(=O)N3CCN(/C(=N/C#N)c4ccccc4)CC3)c12 [AM-11] | > 6.30

SMILES | pEC50
CCCC/N=C(\c1ccccc1)N1CCN(C(=O)C(=O)c2c[nH]c3c(-n4ccnn4)ncc(F)c23)CC1 [AM-62] | > 6.30
CN(C)S(=O)(=O)/N=C(\c1ccccc1)N1CCN(C(=O)C(=O)c2c[nH]c3cccc(F)c23)CC1 [AM-26] | < 6.30
N#C/N=C(\c1ccccc1)N1CCN(C(=O)C(=O)c2c[nH]c3cc(F)cc(F)c23)CC1 [AM-28] | > 6.30
COc1ncc(OC)c2c(C(=O)C(=O)N3CCN(/C(=N/C#N)c4ccccc4)CC3)c[nH]c12 [AM-03] | > 6.30
N#C/N=C(\c1ccccc1)N1CCN(C(=O)C(=O)c2c[nH]c3c(-n4ccnn4)ncc(F)c23)CC1 [AM-10, ((4-(2-(4-fluoro-7-(1H-1,2,3-triazol-1-yl)-1H-pyrrolo[2,3-c]pyridin-3-yl)-2-oxoacetyl)piperazin-1-yl)(phenyl)methylene)cyanamide] | > 6.30
N=C(c1ccccc1)N1CCN(C(=O)C(=O)c2c[nH]c3c(Br)ccc(F)c23)CC1 [AM-73] | > 6.30
CC[C@@H]1CN(/C(=N/C#N)c2ccccc2)CCN1C(=O)C(=O)c1c[nH]c2c(-n3ccnn3)ncc(F)c12 [AM-66] | > 6.30
CCc1ncn(-c2ncc(OC)c3c(C(=O)C(=O)N4CCN(/C(=N/C#N)c5ccccc5)CC4)c[nH]c23)n1 [AM-53] | > 6.30
COc1cnc(-n2ccnn2)c2[nH]cc(C(=O)C(=O)N3CCN(C(=N)c4ccccc4)CC3)c12 [AM-34] | > 6.30
C/N=C(\c1ccccc1)N1CCN(C(=O)C(=O)c2c[nH]c3ccccc23)CC1 [AM-12] | < 6.30
CS(=O)(=O)/N=C(\c1ccccc1)N1CCN(C(=O)C(=O)c2c[nH]c3cccc(F)c23)CC1 [AM-09] | > 6.30
C/N=C(\c1ccccc1)N1CCN(C(=O)C(=O)c2c[nH]c3cccc(F)c23)CC1 [AM-18] | < 6.30
O=C(C(=O)N1CCN(/C(=N/c2ccccc2)c2ccccc2)CC1)c1c[nH]c2cccc(F)c12 [AM-08, 1-(4-fluoro-1H-indol-3-yl)-2-(4-(phenyl(phenylimino)methyl)piperazin-1-yl)ethane-1,2-dione] | > 6.30
CS(=O)(=O)/N=C(\c1ccccc1)N1CCN(C(=O)C(=O)c2c[nH]c3c(-n4ccnn4)ncc(F)c23)CC1 [AM-68] | > 6.30
N=C(c1ccccn1)N1CCN(C(=O)C(=O)c2c[nH]c3c(-n4ccnn4)ncc(F)c23)CC1 [AM-54] | > 6.30
C[C@H]1CN(/C(=N/C#N)c2ccccc2)CCN1C(=O)C(=O)c1c[nH]c2c(-c3nccs3)ccc(F)c12 [AM-78] | > 6.30
O=C(C(=O)N1CCN(/C(=N/C2CCCCC2)c2ccccc2)CC1)c1c[nH]c2c(-n3ccnn3)ncc(F)c12 [AM-63] | > 6.30
C[C@H]1CN(/C(=N/C#N)c2ccccc2)CCN1C(=O)C(=O)c1c[nH]c2c(-c3ccccn3)ccc(F)c12 [AM-79] | > 6.30
C[C@H]1CN(/C(=N/C#N)c2ccccc2)CCN1C(=O)C(=O)c1c[nH]c2c(Br)ccc(F)c12 [AM-76] | > 6.30
